Data from patent US20240130944A1, “LRAT INHIBITORS FOR TREATING SKIN AGEING” (DSM IP Assets B.V., priority 2021, published 2024).

Assays:
[1] = target: T1, recombinant LRAT enzyme (Homo sapiens, UniProt O95237); assay: LRAT inhibition assay; type: biochemical; details: inhibitor concentration 100 [μm]; relative to non-inhibited control reaction
T1 construct: purchased Abnova H00009227-PO1
T1 sequence (O95237 1-230): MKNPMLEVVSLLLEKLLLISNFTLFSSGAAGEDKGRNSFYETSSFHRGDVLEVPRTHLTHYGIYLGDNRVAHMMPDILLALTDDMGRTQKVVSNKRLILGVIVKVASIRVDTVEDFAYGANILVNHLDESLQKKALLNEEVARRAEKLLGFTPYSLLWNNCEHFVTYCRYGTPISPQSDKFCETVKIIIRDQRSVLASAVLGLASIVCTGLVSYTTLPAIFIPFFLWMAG
Procedure: The following buffer was prepared and stored at 4° C.: 0.05 M potassium phosphate, 2.5 mM dithioerythritol, pH 7.0(PO4/DTE). On the day of the assay, 1 mg BSA per mL of buffer was added to give a P04/DTE/BSA working buffer. Retinol substrate (Fluke, 1 mM) was prepared in acetonitrile (Riedel-de-Haen, Chromasolv) and stored in amber bottles under nitrogen gas at −20° C. Solutions of 4 mM dilauroyl phosphatidyl choline in ethanol were prepared and stored at −20° C. Inhibitors were prepared as 10 mM stock solutions according their solubilities in H2O, ethanol, acetonitrile, DMSO or acetic acid. The quenching solution was prepared using pure ethanol containing 50 μg/mL butylhydroxytoluene (Aldrich, BHT) A pentane solution containing 50 μg/mL BHT was used for the extractions.
To a 2 dram glass vial, the following were added in order: […] buffer to give a total volume of 500 μL, 5 μL acyl donor (dilauroyl phosphatidyl choline), 5 μL inhibitor or solvent blank (10 mM stock or further dilutions) followed by 2 μg recombinant LRAT enzyme (Abnova, H00009227-PO1). The mixture was incubated for 5 min. at 37° C. to equilibrate the reaction temperature and then 5 μL of a 1 mM retinol solution was added. The vials were capped, vortexed for 5 seconds and incubated for 60 minutes at 37° C. The reaction was quenched by adding 0.5 mL of a ethanol/BHT quenching solution. The retinoids were extracted by adding 1 mL pentane/BHT, vortexing the tubes for several seconds and centrifuging the tubes at 4000 rpm in a bench-top centrifuge for 5 min. to quickly separate the layers. The upper pentane layer was removed into a clean vial, and the aqueous layer re-extracted twice with another 1 mL pentane/BHT, as described above. […] The dried residue was stored at −20° C. and directly analyzed by HPLC. The amount of retinyl laurate was quantified for LRAT activity by integration of the HPLC or UPLC signal as described below. […]
Two HPLC protocols were used for retinoid analysis. The separation of retinol and retinol esters was performed with a reverse-phase analytical column (Waters Symmetry (R), 75×4.6 mm, 3.5 μm; Eluent A: 0.07% trifluoroacetic acid TFA in water, B: 0.07% TFA in acetonitrile (AcN), linear gradient from 1% B to 99% B in 6 min, 24 min on 99% B) or ACQUITY UPLC BEH Phenyl 1.7 μm 2.1×50 mm (0.02% TFA in water and eluent B, 0.02% TFA in AcN with a gradient of 2% to 99% B in 0.9 min, 99% B for 1 min, from 99% to 2% B in 0.1 min and flow rate 0.5 ml/min at 40° C. The eluate was monitored with a PDA detector for absorbance at 325 nm. Quantification of the retinol and retinylester peak was based on references retinoic acid and retinyl acetate (Fluke). The inhibition [%] was calculated relative to the product yield from the non-inhibited control reaction.

[2] = test system: living human skin explants; assay: Epidermal thickness on living human skin explants; type: cell-based; set-up: key: 0 = unchanged; (+) = very slight increased; + = slight increased; ++ = moderate increased; +++ = fairly clear increased; ++++ = clear increased; details: topical
Procedure: (§1) On an abdoplasty coming from a person with a type II phototype, 51 circular skin explants of 11±1 mm in diameter were prepared. The explants were kept for survival in BEM culture medium (BIO-EC's Explants Medium, Longjumeau, France) at 37° C. in a humid, 5% CO2 atmosphere
(§2) Each morning on day 0, 1, 4 and 6 the test products (except retinol) were applied topically on the basis of […] (2 mg/cm2) of the concerned skin explants and spread using a small spatula. Each evening on day 0, 1, 4, 6 the retinol was applied topically on the basis of 2 μl/ explants (2 mg/cm2) of the concerned skin explants and spread using a small spatula. The vehicle V (DMSO 100%) was applied topically (same protocol as for products) in the morning and in the evening on day0, 1, 4, 6. The culture medium was refreshed on dayl, 4 and 6.
(§3) On day 0, 3 explants from the batch at day 0 were collected and cut in two parts. Half was fixed in buffered formalin solution and half was frozen at −80° C. On day 8, 3 explants from each experimental condition were collected and processed in the same way as on day 0.
(§4) After fixation for 24 hours in buffered formalin, the samples were dehydrated and impregnated in paraffin using a Leica PEARL dehydration automat. The samples were embedded using a Leica EG 1160 embedding station. 5-μm-thick sections were made using a Leica RM 2125 Minot-type microtome, and the sections were mounted on Superfrost® histological glass slides. The frozen samples were cut at 7-μm thickness with a Leica CM 3050 cryostat. The sections were then mounted on silanized glass slides Superfrost® Plus. The microscopical observations were realized using a Leica DMLB or Olympus BX43 microscope. Pictures were digitized with a numeric DP72 Olympus camera with cellSens storing software.
The cell viability of the epidermal and dermal structures was controlled on formalin-fixed paraffin-embedded (FFPE) skin sections after to Masson's trichrome staining, Goldner variant. The cell viability was assessed by microscopical observation.

[3] = test system: Collagen III; assay: Collagen III immunostaining on living human skin explants; type: cell-based; set-up: key: 0 = unchanged; (+) = very slight increased; + = slight increased; ++ = moderate increased; +++ = fairly clear increased; ++++ = clear increased; details: topical
Procedure: as §1, §2, §3, §4
The staining was assessed by microscopical observation

[4] = LRAT inhibitor 0.005% with Retinol 0.05%
[5] = LRAT inhibitor 0.005%, no retinol
[6] = LRAT inhibitor 0.01% with Retinol 0.05%
[7] = LRAT inhibitor 0.01%, no retinol
[8] = LRAT inhibitor 0.1% with Retinol 0.05%

## CC(=O)N1CCN(C(=O)[C@H](Cc2cccc(C(=N)N)c2)NS(=O)(=O)c2ccc3ccccc3c2)CC1 [2NAPS-(L)-F(3AMD)-Pzd(N—Ac)]
[1]
  LRAT inhibition, Inhibition [%]: 38.7%

## CS(=O)(=O)N1CCN(C(=O)C(N)Cc2cccc(C(=N)N)c2)CC1.Cl.Cl (centres unmarked) [H-(D,L)-F(3AMD)-Pzd(N—SO2Me) × 2 HCl, H-(D,L)-F(3AMD)-Pzd(N—SO2Me), reference compound]
[1]
  LRAT inhibition, Inhibition [%]: 6.8%

## CCCCCCCCCCS(=O)(=O)NC(Cc1cccc(C(=N)N)c1)C(=O)N1CCN(S(C)(=O)=O)CC1 (centres unmarked) [LRAT-IA, DECS-(L)-F(3AMD)-Pzd(N-SO2Me)]
[2]; [4]
  change of Epidermis thickness compared to control (vehicle only) on day 8: +
[2]; [5]
  change of Epidermis thickness compared to control (vehicle only) on day 8: (+)
[2]; [6]
  change of Epidermis thickness compared to control (vehicle only) on day 8: +
[2]; [7]
  change of Epidermis thickness compared to control (vehicle only) on day 8: +
[2]; [8]
  change of Epidermis thickness compared to control (vehicle only) on day 8: +
[3]; [4]
  change of Collagen III level (staining) compared to control (vehicle only) on day 8: +
[3]; [5]
  change of Collagen III level (staining) compared to control (vehicle only) on day 8: 0
[3]; [6]
  change of Collagen III level (staining) compared to control (vehicle only) on day 8: ++
[3]; [7]
  change of Collagen III level (staining) compared to control (vehicle only) on day 8: 0
[3]; [8]
  change of Collagen III level (staining) compared to control (vehicle only) on day 8: +++
[3]; LRAT inhibitor 0.1%, no retinol
  change of Collagen III level (staining) compared to control (vehicle only) on day 8: ++

## CCCCCCCCS(=O)(=O)NC(Cc1cccc(C(=N)N)c1)C(=O)N1CCN(S(=O)(=O)CCCCCCCC)CC1 (centres unmarked) [OCTS-(D,L)-F(3AMD)-Pzd(N—SO2Oct)]
[1]
  LRAT inhibition, Inhibition [%]: 89.9%

## CC1=C(/C=C/C(C)=C/C=C/C(C)=C/CO)C(C)(C)CCC1 [Retinol, reference compound]
[2]; Retinol 0.05% alone
  change of Epidermis thickness compared to control (vehicle only) on day 8: +
[3]; Retinol 0.05% alone
  change of Collagen III level (staining) compared to control (vehicle only) on day 8: +

## DODS-(L)-F(4NH2)-Pzd(N—SO2Me) [reference compound]
[1]
  LRAT inhibition, Inhibition [%]: 0%
